ChEMBL document CHEMBL1128041, “Thiophene derivatives as extremely high affinity P3 ligands for the hydroxyethylpiperazine class of HIV-1 protease inhibitors” (Bioorg Med Chem Lett, 1995)
Values after ≈ are worked out from the molar mass of the structure shown.

Legend:
[1] = system: MT4; assay: Compound was tested in vitro for antiviral activity against MT-4 human lymphoid cells infected with the HIV IIIb isolate; type: functional; details: read-out: CIC95
[2] = Solubility at pH 5.2; type: physicochemical; details: buffer
[3] = Solubility at pH 7.4; type: physicochemical; details: buffer
[4] = system: MT4; assay: Compound was tested in vitro for antiviral activity against MT-4 human lymphoid cells infected with the HIV IIIb isolate; value ranges from 25-50; type: functional; details: read-out: CIC95
[5] = Maximal plasma concentration was determined.; type: ADME, organism-based; details: rat
[6] = target: Human immunodeficiency virus type 1 protease (Human immunodeficiency virus 1, UniProt Q72874); assay: Inhibition of HIV-1 Protease

| Structure (SMILES) | IC95 [1] [nM] | solubility [2] [µg/mL] | solubility [3] [µg/mL] | also measured |
| --- | --- | --- | --- | --- |
| CC(C)[C@@H]1[C@H](OC(=O)N[C@@H](Cc2ccccc2)[C@H](O)CN2CCN(Cc3cc4sccc4s3)C[C@H]2C(=O)NC(C)(C)C)CCS1(=O)=O | 6 | 6.9 (≈ 9.79 µM) | < 0.05 |  |
| CC(C)[C@@H]1[C@H](OC(=O)N[C@@H](Cc2ccccc2)[C@H](O)CN2CCN(Cc3cc(Br)cs3)C[C@H]2C(=O)NC(C)(C)C)CCS1(=O)=O | 25 | 37.2 (≈ 51.1 µM) | < 0.08 |  |
| CC(C)[C@@H]1[C@H](OC(=O)N[C@@H](Cc2ccccc2)[C@H](O)CN2CCN(CCc3ccsc3)C[C@H]2C(=O)NC(C)(C)C)CCS1(=O)=O | 50 |  |  |  |
| CC(C)[C@@H]1[C@H](OC(=O)N[C@@H](Cc2ccccc2)[C@H](O)CN2CCN(Cc3cccs3)C[C@H]2C(=O)NC(C)(C)C)CCS1(=O)=O |  |  |  | IC95 [4]: 25 nM |
| CC(C)[C@@H]1[C@H](OC(=O)N[C@@H](Cc2ccccc2)[C@H](O)CN2CCN(Cc3ccc(Br)s3)C[C@H]2C(=O)NC(C)(C)C)CCS1(=O)=O | 100 |  |  |  |
| CC(C)[C@@H]1[C@H](OC(=O)N[C@@H](Cc2ccccc2)[C@H](O)CN2CCN(CCc3cccs3)C[C@H]2C(=O)NC(C)(C)C)CCS1(=O)=O |  | 1270 (≈ 1920 µM) | 91.3 (≈ 138 µM) | Cmax [5]: > 1000 nM; IC95 [4]: 25 nM |
| Cc1cc(CN2CCN(C[C@@H](O)[C@H](Cc3ccccc3)NC(=O)O[C@@H]3CCS(=O)(=O)[C@@H]3C(C)C)[C@H](C(=O)NC(C)(C)C)C2)cc(Cl)n1 | 25 |  |  |  |
| CC(C)[C@@H]1[C@H](OC(=O)N[C@@H](Cc2ccccc2)[C@H](O)CN2CCN(Cc3cc4ccccc4s3)C[C@H]2C(=O)NC(C)(C)C)CCS1(=O)=O | 100 |  |  |  |
| CC(C)[C@@H]1[C@H](OC(=O)N[C@@H](Cc2ccccc2)[C@H](O)CN2CCN(Cc3ccc(-c4cccs4)s3)C[C@H]2C(=O)NC(C)(C)C)CCS1(=O)=O | 50 |  |  |  |
| CC(C)[C@@H]1[C@H](OC(=O)N[C@@H](Cc2ccccc2)[C@H](O)CN2CCN(Cc3cc4ccsc4s3)C[C@H]2C(=O)NC(C)(C)C)CCS1(=O)=O | 12 | 11.1 (≈ 15.7 µM) | 0.1 (≈ 0.142 µM) |  |
| CC(C)[C@@H]1[C@H](OC(=O)N[C@@H](Cc2ccccc2)[C@H](O)CN2CCN(Cc3ccsc3)C[C@H]2C(=O)NC(C)(C)C)CCS1(=O)=O | 50 |  |  |  |
| CCc1ccc(CCN2CCN(C[C@@H](O)[C@H](Cc3ccccc3)NC(=O)O[C@@H]3CCS(=O)(=O)[C@@H]3C(C)C)[C@H](C(=O)NC(C)(C)C)C2)s1 | 50 |  |  |  |
| CC(C)[C@@H]1[C@H](OC(=O)N[C@@H](Cc2ccccc2)[C@H](O)CN2CCN(Cc3csc4ccc(Cl)cc34)C[C@H]2C(=O)NC(C)(C)C)CCS1(=O)=O | 100 |  |  | IC50 [6]: 0.47 nM |
